Here are results for 24 molecules from US20230322706A1, “NOVEL BIARYL DERIVATIVE USEFUL AS DIACYLGLYCEROL ACYLTRANSFERASE 2 INHIBITOR, AND USE THEREOF” (LG CHEM, LTD., priority 2020, published 2023).

The target of the test is human DGAT2 (Homo sapiens (Human), UniProt Q96PD7). Description: Measurement of inhibitory effect against DGAT2 enzyme activity (SPA, Phospholipid FlashPlate, [14C]-TG production). Type of test: biochemical. As to conditions: recombinant human DGAT2 membrane protein from Sf-21 cells; inhibition of [14C]-TG production; 37° C. The source says: Experimental Example: Measurement of Inhibitory Effect Against DGAT2 Enzyme Activity
1. Preparation of DGAT2 Expression Vector
In order to prepare the pBacPAK9-DGAT2, which is DGAT2 expression vector, the human DGAT2 gene amplified by polymerase chain reaction (PCR) was cloned into the EcoR1 and Xho1 sites of the pBacPAK9 (clonctech) vector. The nucleotide sequence of the primers used in PCR was the forward primer 5′ […] and the reverse primer 5′ […]. The composition of the reaction solution was to contain 50 ng of cDNA clone (OriGene), 200 μM of dATP, dCTP, dTTP, dGTP, 200 nM of each primer, 1 unit of Tag DNA Polymerase (Toyobo), 1x PCR buffer, and the final volume was adjusted to 20 μl. The reaction conditions were denatured at 95° C. for 5 minutes, followed by 30 times of 94° C. for 20 seconds, 60° C. for 20 seconds, and 72° C. for 90 seconds, followed by further reaction at 72° C. for 7 minutes.
2. DGAT2 Expression and Preparation of Membrane Protein
Recombinant human DGAT2 protein was expressed in Sf-21 cells, which are insect cells, by using the BacPack baculovirus expression system (Clontech). The brief manufacturing process is as follows. First, the pBacPAK9-DGAT2 expression vector was transfected with BacPAK6 virus DNA (Bsu36I digest) into sf21 cells using Bacfectin to prepare a recombinant DGAT2 expressing baculovirus. The thus prepared baculovirus was infected with Sf-21 cells at 10 MOI (multiplicity of infection), and after 72 hours, infected insect cells were collected and membrane proteins were isolated. For membrane protein separation, the cell pellet was dissolved in a sucrose solution containing 250 mM sucrose, 10 mM Tris (pH 7.4), and 1 mM ethylenediamine-tetraacetic acid (EDTA), and then homogenized by using a dounce homogenizer, and the supernatant was taken by centrifuging at 600×g for 15 minutes, and centrifuged at 100,000×g for 1 hour to discard the supernatant, and the remaining pellet was resuspended in 20 mM HEPES buffer (pH 7.4). The prepared DGAT2 overexpressing membrane protein was dispensed in 100 μl and stored at −80° C. until use. Protein concentration was quantified by using the BCA Protein Assay Kit (Thermo Scientific).
3. Measurement of Inhibitory Effect Against DGAT2 Enzyme Activity
In vitro DGAT2 analysis was performed using a Phospholipid Flash Plate (PerkinElmer) based on the principle of SPA (Scintilation Proximity Assay). First, DGAT2 inhibition compounds serially diluted 5 times from 3 nM to 10 μM (final concentration, 1% DMSO) were mixed in a buffer solution containing 2 μg DGAT2-membrane protein and 20 mM HEPES, 20 mM MgCl2, 1 mg/mL BSA, 50 μM 1,2 sn-oleoyl glycerol (Sigma), put in a 96-well flash plate (FlashPlate) and reacted at 37° C. for 20 minutes, and then 1 μM [14C] ole oil CoA (PerkinElmer, NEC651050UC) was added to be a final volume of 100 μL and further reacted at 37° C. for 15 minutes. After the enzymatic reaction was completed, 100 μL of isopropanol was added, the plate was sealed with a film, and the plate was shaken slowly in a plate shaker. The next day, the amplified scintillation signal (cpm) in Topcounter (Packard) was measured to measure the degree of production of [14C]-labeled triacyl glycerol (TG) as a reaction product. The measured value when the compound was not treated was used as a positive control, and the measured value of the compound treated group was calculated as a relative % to measure the inhibition effect of the compound on TG production. The IC50 value, which is the concentration of the compound that inhibits TG production by 50%, was determined by treating the response value according to the compound concentration with a nonlinear regression curve using PRISM (Graphpad Inc.).

pIC50: −log10 of the molar value.

Sequence of human DGAT2 (Q96PD7 whole entry): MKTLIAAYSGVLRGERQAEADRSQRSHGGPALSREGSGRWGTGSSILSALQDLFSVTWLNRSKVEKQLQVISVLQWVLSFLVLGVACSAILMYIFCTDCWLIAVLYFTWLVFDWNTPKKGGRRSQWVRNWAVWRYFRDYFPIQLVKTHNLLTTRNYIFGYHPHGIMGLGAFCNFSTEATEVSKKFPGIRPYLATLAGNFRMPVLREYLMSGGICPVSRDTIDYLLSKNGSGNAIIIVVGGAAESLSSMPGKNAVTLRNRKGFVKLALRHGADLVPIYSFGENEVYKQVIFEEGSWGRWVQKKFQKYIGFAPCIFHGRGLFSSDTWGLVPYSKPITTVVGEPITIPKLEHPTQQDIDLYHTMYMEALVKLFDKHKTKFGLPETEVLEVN

For `CCOc1cccnc1Oc1cccc(-c2cncc(Nc3nccc(N4CCC[C@@H](C(=O)O)C4)n3)n2)c1` [Example 31, (R)-1-(2-((6-(3-((3-ethoxypyridin-2-yl)oxy)pheny)pyrazin-2-yl)amino)pyrimidin-4-yl)piperidine-3-carboxylic acid], the pIC50 is 5.04.
The same measure for `CCOc1cccnc1Oc1cccc(-c2cncc(Nc3nccc(O[C@H]4CC[C@H](C(=O)O)CC4)n3)n2)c1` [Example 33, (1r,4r)-4-((2-((6-(3-((3-ethoxypyridin-2-yl)oxy)phenyl)pyrazin-2-yl)amino)pyrimidin-4-yl)oxy)cyclohexane-1-carboxylic acid]: 5.47; for `CCOc1cccnc1Oc1cccc(-c2cncc(NC(=O)C(C)(C)c3ccc(CC(C)(C)C(=O)O)cc3)n2)c1` [Example 29, 3-(4-(1-((6-(3-((3-ethoxypyridin-2-yl)oxy)phenyl)pyrazin-2-yl)amino)-2-methyl-1-oxopropane-2-yl)phenyl)-2,2-dimethylpropanoic acid]: 8.17; for `CCOc1cccnc1Oc1cccc(-c2cncc(NC(=O)Cc3ccc(CC(C)(C)C(=O)O)cc3)n2)c1` [Example 27, 3-(4-(2-((6-(3-((3-ethoxypyridin-2-yl)oxy)phenyl)pyrazin-2-yl)amino)-2-oxoethyl)phenyl)-2,2-dimethylpropanoic acid]: 8.13.
The same measure for `CCOc1cccnc1Oc1cccc(-c2cncc(NC(=O)CCc3ccc(C(C)(C)C(=O)O)cc3)n2)c1` [Example 26, 2-(4-(3-((6-(3-((3-ethoxypyridin-2-yl)oxy)phenyl)pyrazin-2-yl)amino)-3-oxopropyl)phenyl)-2-methylpropanoic acid]: 7.68.
`CCOc1cccnc1Oc1cccc(-c2cncc(NC(=O)CCc3ccc(OC(C)(C)C(=O)O)cc3)n2)c1` [Example 28, 2-(4-(3-((6-(3-((3-ethoxypyridin-2-yl)oxy)phenyl)pyrazin-2-yl)amino)-3-oxopropyl)phenoxy)-2-methylpropanoic acid]: the pIC50 was 6.68.
Under `CCOc1ccccc1Oc1cncc(-c2cncc(NC(=O)CCc3ccccc3)n2)c1` [Example 1, N-(6-(5-(2-ethoxyphenoxy)pyridin-3-yl)pyrazin-2-yl)-3-phenylpropanamide] stands 7.46; under `CCOc1ccccc1Oc1cncc(-c2cncc(NC(=O)Cc3ccc(CC(=O)OC)cc3)n2)c1` [Example 2, methyl 2-(4-(2-((6-(5-(2-ethoxyphenoxy)pyridin-3-yl)pyrazin-2-yl)amino)-2-oxoethyl)phenyl)acetate], 7.57; under `CCOc1ccccc1Oc1cncc(-c2cncc(Nc3nccc(N4CCC[C@@H](C(=O)O)C4)n3)n2)c1` [Example 8, (R)-1-(2-((6-(5-(2-ethoxyphenoxy)pyridin-3-yl)pyrazin-2-yl)amino)pyrimidin-4-yl)piperidine-3-carboxylic acid], 5.74.
The same measure for `CCOc1ccccc1Oc1cccc(-c2cncc(Nc3nccc(O[C@H]4CC[C@H](C(=O)O)CC4)n3)n2)c1` [Example 21, (1r,4r)-4-((2-((6-(3-(2-ethoxyphenoxy)phenyl)pyrazin-2-yl)amino)pyrimidin-4-yl)oxy)cyclohexane-1-carboxylic acid]: 5.92; for `CCOc1cccnc1Oc1cccc(-c2cncc(Nc3cccc(-c4cccc(CC(C)(C)C(=O)O)c4)n3)n2)c1` [Example 32, 3-(3-(6-((6-(3-((3-ethoxypyridin-2-yl)oxy)phenyl)pyrazin-2-yl)amino)pyridin-2-yl)phenyl)-2,2-dimethylpropanoic acid]: 7.15.
On to `CCOc1ccccc1Oc1cncc(-c2cncc(Nc3cccc(-c4cccc(CC(C)(C)C(=O)O)c4)n3)n2)c1` [Example 9, 3-(3-(6-((6-(5-(2-ethoxyphenoxy)pyridin-3-yl)pyrazin-2-yl)amino)pyridin-2-yl)phenyl)-2,2-dimethylpropanoic acid], for which the pIC50 was 6.80.
Take `CCOc1ccccc1Oc1cccc(-c2cncc(NC(=O)C(C)(C)c3ccc(CC(C)(C)C(=O)O)cc3)n2)c1` [Example 18, 3-(4-(1-((6-(3-(2-ethoxyphenoxy)phenyl)pyrazin-2-yl)amino)-2-methyl-1-oxopropan-2-yl)phenyl)-2,2-dimethylpropanoic acid]: the pIC50 is 7.66.
Turning to `CCOc1ccccc1Oc1cccc(-c2cncc(NC(=O)CCc3ccccc3)n2)n1` [Example 22, N-(6-(6-(2-ethoxyphenoxy)pyridin-2-yl)pyrazin-2-yl)-3-phenylpropanamide], the pIC50 was 5.68.
Take `CCOc1ccccc1Oc1cccc(-c2cncc(Nc3cccc(-c4cccc(CC(C)(C)C(=O)O)c4)n3)n2)n1` [Example 25, 3-(3-(6-((6-(6-(2-ethoxyphenoxy)pyridin-2-yl)pyrazin-2-yl)amino)pyridin-2-yl)phenyl)-2,2-dimethylpropanoic acid]: the pIC50 was 6.35.
With `CCOc1ccccc1Oc1cncc(-c2cncc(NC(=O)Cc3ccc(CC(C)(C)C(=O)O)cc3)n2)c1` [Example 7, 3-(4-(2-((6-(5-(2-ethoxyphenoxy)pyridin-3-yl)pyrazin-2-yl)amino)-2-oxoethyl)phenyl)-2,2-dimethylpropanoic acid], the pIC50 was 7.44.
The same measure for `CCOc1ccccc1Oc1cccc(-c2cncc(NC(=O)CCc3ccc(OC(C)(C)C(=O)O)cc3)n2)c1` [Example 13, 2-(4-(3-((6-(3-(2-ethoxyphenoxy)phenyl)pyrazin-2-yl)amino)-3-oxopropyl)phenoxy)-2-methylpropanoic acid]: 6.48.
The same measure for `CCOc1ccccc1Oc1cccc(-c2cncc(NC(=O)Cc3ccc(CC(C)(C)C(=O)O)cc3)n2)c1` [Example 15, 3-(4-(2-((6-(3-(2-ethoxyphenoxy)phenyl)pyrazin-2-yl)amino)-2-oxoethyl)phenyl)-2,2-dimethylpropanoic acid]: 7.89.
Under `CCOc1ccccc1Oc1cncc(-c2cncc(NC(=O)CCc3ccc(CC(=O)O)cc3)n2)c1` [Example 4, 2-(4-(3-((6-(5-(2-ethoxyphenoxy)pyridin-3-yl)pyrazin-2-yl)amino)-3-oxopropyl)phenyl)acetic acid] stands 6.54.
In the case of `CCOc1ccccc1Oc1cccc(-c2cncc(NC(=O)Cc3ccc(OC(C)(C)C(=O)O)cc3)n2)c1` [Example 19], the pIC50 was 6.37.
On to `CCOc1ccccc1Oc1cccc(-c2cncc(NC(=O)Cc3ccc(CC(C)(C)C(=O)O)cc3)n2)n1` [Example 23, 3-(4-(2-((6-(6-(2-ethoxyphenoxy)pyridin-2-yl)pyrazin-2-yl)amino)-2-oxoethyl)phenyl)-2,2-dimethylpropanoic acid], for which the pIC50 was 7.21.
Turning to `CCOc1ccccc1Oc1cncc(-c2cncc(NC(=O)CCc3ccc(C(C)(C)C(=O)OC)cc3)n2)c1` [Example 5, methyl 2-(4-(3-((6-(5-(2-ethoxyphenoxy)pyridin-3-yl)pyrazin-2-yl)amino)-3-oxopropyl)phenyl)-2-methylpropanoate], the pIC50 is 7.96.
With `CCOc1ccccc1Oc1cncc(-c2cncc(NC(=O)Cc3ccc(CC(=O)O)cc3)n2)c1` [Example 3, 2-(4-(2-((6-(5-(2-ethoxyphenoxy)pyridin-3-yl)pyrazin-2-yl)amino)-2-oxoethyl)phenyl)acetic acid], the pIC50 was 5.47.
Under `CCOc1ccccc1Oc1cccc(-c2cncc(Nc3nccc(N4CCC[C@@H](C(=O)O)C4)n3)n2)n1` [Example 24, (R)-1-(2-((6-(6-(2-ethoxyphenoxy)pyridin-2-yl)pyrazin-2-yl)amino)pyrimidin-4-yl)piperidine-3-carboxylic acid] stands 5.13.

Usually pIC50 stands for the negative decadic logarithm of the IC50, by convention in mol/L.
